# Measured values reported in patent US10760052B2, “Method of inhibiting tau phosphorylation” (priority 2012, dated 2020).
# Molecular target: T1, mu opiate receptor (MOR) (Rattus norvegicus, UniProt P33535)
# T1 construct: from tissue; host or cells: striatum (membrane preparation)
# Type: biochemical
# Conditions: for Concentration of FLNA-Binding Compound as Agonist 0.1 μM / Concentration of FLNA-Binding Compound as Agonist 1 μM / Concentration of FLNA-Binding Compound as Agonist 1 μM + BFNA: [35S]GTPγS binding to Gαo in striatal membranes; for Concentration of FLNA-Binding Compound as Agonist 0.1 μM: compound 0.1 μM; for Concentration of FLNA-Binding Compound as Agonist 1 μM: compound 1 μM; for Concentration of FLNA-Binding Compound as Agonist 1 μM + BFNA: compound 1 μM plus 1 μM β-funaltrexamine (MOR antagonist); for [35S]GTPγS binding, FLNA-Binding Compound as Agonist at 0.1 μM: 0.1 μM compound; for [35S]GTPγS binding, FLNA-Binding Compound as Agonist at 0.1 μM / [35S]GTPγS binding, FLNA-Binding Compound as Agonist at 1 μM: striatal membranes; for [35S]GTPγS binding, FLNA-Binding Compound as Agonist at 0.1 μM / [35S]GTPγS binding, FLNA-Binding Compound as Agonist at 1 μM + BFNA / [35S]GTPγS binding, FLNA-Binding Compound as Agonist at 1 μM: Series C-2; for [35S]GTPγS binding, FLNA-Binding Compound as Agonist at 1 μM + BFNA: 1 μM compound + 1 μM β-FNA (selective MOR antagonist); for [35S]GTPγS binding, FLNA-Binding Compound as Agonist at 1 μM: 1 μM compound
# T1 sequence (P33535 whole entry): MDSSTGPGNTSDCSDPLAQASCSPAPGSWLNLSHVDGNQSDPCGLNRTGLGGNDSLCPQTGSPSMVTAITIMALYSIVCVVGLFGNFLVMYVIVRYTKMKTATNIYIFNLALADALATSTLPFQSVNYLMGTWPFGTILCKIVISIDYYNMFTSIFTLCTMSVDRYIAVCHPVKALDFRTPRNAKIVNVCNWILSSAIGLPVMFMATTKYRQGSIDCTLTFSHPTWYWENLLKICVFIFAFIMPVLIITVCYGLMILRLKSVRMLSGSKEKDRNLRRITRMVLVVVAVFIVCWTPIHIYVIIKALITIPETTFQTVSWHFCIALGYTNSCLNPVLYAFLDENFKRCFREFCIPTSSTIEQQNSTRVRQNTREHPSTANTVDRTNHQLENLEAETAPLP
Compound,% DAMGO (0.1 μM) [%],% DAMGO (1 μM) [%],% DAMGO + BFNA [%],Concentration of FLNA-Binding Compound as Agonist 0.1 μM [%],Concentration of FLNA-Binding Compound as Agonist 1 μM [%],Concentration of FLNA-Binding Compound as Agonist 1 μM + BFNA [%],"[35S]GTPγS binding, FLNA-Binding Compound as Agonist at 0.1 μM [%]","[35S]GTPγS binding, FLNA-Binding Compound as Agonist at 1 μM + BFNA [%]","[35S]GTPγS binding, FLNA-Binding Compound as Agonist at 1 μM [%]"
CC1CCC(C(C)C)C(OCC(CN2CC(C)OC(C)C2)NCc2ccccc2)C1 (stereo not drawn) [Compound A0033],79.4,92.2,159.9,155.8,254.6,118.2,,,
COc1c2c(cc3c1C(CC(=O)Cc1ccc(Br)cc1)[N+](C)(C)CC3)OCO2 (stereo not drawn) [Compound B0011],95.7,78.7,120.0,158.6,212.6,78.0,,,
COc1c2c(cc3c1C(CC(=O)CCc1ccc(O)cc1)[N+](C)(C)CC3)OCO2 (stereo not drawn) [Compound B0028],103.5,131.0,125.3,199.1,357.7,55.0,,,
CC1CN(CC(O)COc2cc(F)cc(F)c2)CC(C)O1 (stereo not drawn) [Compound A0046],131.2,128.3,189.4,257.5,354.1,140.0,,,
COc1c2c(cc3c1C(CC(=O)c1ccc(C#N)cc1)[N+](C)(C)CC3)OCO2 (stereo not drawn) [Compound B0001],77.4,74.9,43.1,128.2,202.3,28.0,,,
COc1ccc(S(=O)(=O)N2CCC3(CC2)OCCN3S(=O)(=O)c2ccc(OC)c(OC)c2)cc1OC [Compound C0049],73.5,90.1,184.1,106.6,210.0,81.0,,,
COc1cc(OC)cc(C(=O)CC2c3c(cc4c(c3OC)OCO4)CC[N+]2(C)C)c1 (stereo not drawn) [Compound B0035],109.8,93.2,142.4,188.0,248.7,74.2,,,
CC1CCC(C(C)C)C(OCC(O)CN2CC(C)CC(C)C2)C1 (stereo not drawn) [Compound A0008],109.6,102.1,505.3,163.8,235.0,133.9,,,
CC1CCC(C(C)C)C(OCC(O)CN2CCc3ccccc3C2)C1 (stereo not drawn) [Compound A0040],23.5,54.0,22.6,46.1,149.0,16.7,,,
COc1c2c(cc3c1C(CC(=O)c1cccc(C(F)(F)F)c1)[N+](C)(C)CC3)OCO2 (stereo not drawn) [Compound B0006],44.8,47.5,29.0,77.0,131.3,18.6,,,
COc1ccc(CCC(=O)CC2c3c(cc4c(c3OC)OCO4)CC[N+]2(C)C)c(OC)c1 (stereo not drawn) [Compound B0043],42.4,97.6,632.7,74.8,248.1,166.4,,,
COc1ccc(S(=O)(=O)N2CCOC23CCNCC3)cc1 [Compound C0027],121.3,115.0,164.5,,,,233.2,72.2,313.9
C=CCN1CCC2(CC1)OCCN2S(=O)(=O)c1ccc(C(C)=O)cc1 [Compound C0096M],105.9,130.0,577.7,,,,186.4,127.1,328.9
CC(=O)c1ccc(S(=O)(=O)N2CCC3(CC2)OC(CN(C)C)CN3S(=O)(=O)c2ccc(C(C)=O)cc2)cc1 (stereo not drawn) [Compound C0065],127.0,121.3,119.5,198.3,279.5,47.7,,,
